# Measured values: PubChem BioAssay AID330 (DTP/NCI, 2004)
# Values joined by “and” are separate entries in the source; they are usually repeats but may differ in a detail not shown here. Identical values can stand only once. Toxic doses and inconclusive results are not listed.
# Test system: P388 leukemia ip, CD2F1 mice, survival T/C
# Test: NCI In Vivo Anticancer Drug Screen. Data for tumor model P388 Leukemia (intraperitoneal) in CD2F1 (CDF1) mice
# Details: endpoint: median survival time, higher = longer survival
# Outline: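 Mice carrying the transplanted tumor received test compound or vehicle. Survival was recorded in each group, and the value is the treated-group measurement divided by that of the vehicle-treated control group.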
# [1] = dose: 60.0 mg/kg/injection, schedule: Q01DX005 (ip), vehicle: saline with Tween-80
# [2] = dose: 120.0 mg/kg/injection, schedule: Q01DX005 (ip), vehicle: saline with Tween-80
# [3] = dose: 240.0 mg/kg/injection, schedule: Q01DX005 (ip), vehicle: saline with Tween-80
# [4] = dose: 50.0 mg/kg/injection, schedule: Q01DX005 (ip), vehicle: saline with Tween-80
# [5] = dose: 100.0 mg/kg/injection, schedule: Q01DX005 (ip), vehicle: saline with Tween-80
# [6] = dose: 200.0 mg/kg/injection, schedule: Q01DX005 (ip), vehicle: saline with Tween-80
# [7] = dose: 25.0 mg/kg/injection, schedule: Q01DX005 (ip), vehicle: Klucel (hydroxypropylcellulose) (HPC)
# [8] = dose: 50.0 mg/kg/injection, schedule: Q01DX005 (ip), vehicle: Klucel (hydroxypropylcellulose) (HPC)
# [9] = dose: 100.0 mg/kg/injection, schedule: Q01DX005 (ip), vehicle: Klucel (hydroxypropylcellulose) (HPC)
# [10] = dose: 200.0 mg/kg/injection, schedule: Q01DX005 (ip), vehicle: Klucel (hydroxypropylcellulose) (HPC)
# [11] = dose: 25.0 mg/kg/injection, schedule: Q01DX009 (ip), vehicle: saline
# [12] = dose: 50.0 mg/kg/injection, schedule: Q01DX009 (ip), vehicle: saline
# [13] = dose: 100.0 mg/kg/injection, schedule: Q01DX009 (ip), vehicle: saline
# [14] = dose: 200.0 mg/kg/injection, schedule: Q01DX009 (ip), vehicle: saline
# [15] = dose: 50.0 mg/kg/injection, schedule: Q04DX003 (ip), vehicle: saline with Tween-80
# [16] = dose: 100.0 mg/kg/injection, schedule: Q01DX009 (ip), vehicle: saline with Tween-80
# [17] = dose: 100.0 mg/kg/injection, schedule: Q04DX003 (ip), vehicle: saline with Tween-80
# [18] = dose: 50.0 mg/kg/injection, schedule: Q01DX009 (ip), vehicle: Klucel (hydroxypropylcellulose) (HPC)
# [19] = dose: 100.0 mg/kg/injection, schedule: Q01DX009 (ip), vehicle: Klucel (hydroxypropylcellulose) (HPC)
# [20] = dose: 200.0 mg/kg/injection, schedule: Q01DX009 (ip), vehicle: Klucel (hydroxypropylcellulose) (HPC)
# [21] = dose: 50.0 mg/kg/injection, schedule: Q01DX009 (ip), vehicle: saline with Tween-80
compound,measurement,setting,value
O=[N+]([O-])c1ccccc1NC1CCN(CCCC2(c3ccc(F)cc3)OCCO2)CC1,T/C,[1],97 % of control
same,T/C,[2],101 % of control
same,T/C,[3],99 % of control
N=C1SCC(=O)C1C(=O)O (configuration not stated),T/C,[4],105 % of control
same,T/C,[5],119 % of control
same,T/C,[6],110 % of control
CCC1(C)CCC2(C)C(CCC3C4(C)CCCC32OC4=O)C1 (configuration not stated),T/C,[7],96 % of control
same,T/C,[8],99 % of control
same,T/C,[9],101 % of control and 103 % of control
same,T/C,[10],99 % of control
CC(=O)Nc1cccc(N)c1,T/C,"dose: 33.0 mg/kg/injection, schedule: Q04DX003 (ip), vehicle: saline",95 % of control
same,T/C,"dose: 50.0 mg/kg/injection, schedule: Q04DX003 (ip), vehicle: saline",95 % of control
same,T/C,"dose: 75.0 mg/kg/injection, schedule: Q04DX003 (ip), vehicle: saline",100 % of control
Nc1cc(=O)[nH]c2ncnn12,T/C,[11],103 % of control
same,T/C,[12],109 % of control
same,T/C,[13],102 % of control
same,T/C,[14],99 % of control
CCOC(=O)C(C#N)C1(O)C(=O)Nc2ccccc21 (configuration not stated),T/C,[8],104 % of control
same,T/C,[9],102 % of control
same,T/C,[10],103 % of control
O=c1[nH]cc(NS(=O)(=O)c2ccc([N+](=O)[O-])cc2)c(=O)[nH]1,T/C,"dose: 60.0 mg/kg/injection, schedule: Q01DX005 (ip), vehicle: Klucel (hydroxypropylcellulose) (HPC)",101 % of control
same,T/C,"dose: 120.0 mg/kg/injection, schedule: Q01DX005 (ip), vehicle: Klucel (hydroxypropylcellulose) (HPC)",103 % of control
same,T/C,"dose: 240.0 mg/kg/injection, schedule: Q01DX005 (ip), vehicle: Klucel (hydroxypropylcellulose) (HPC)",108 % of control
CCCOP(=S)(N1CC1C)N1CC1(C)C (configuration not stated),T/C,"dose: 12.5 mg/kg/injection, schedule: Q04DX003 (ip), vehicle: saline with Tween-80",122 % of control
same,T/C,[15],154 % of control
same,T/C,"dose: 66.0 mg/kg/injection, schedule: Q04DX003 (ip), vehicle: saline with Tween-80",186 % of control
same,T/C,[16],113 % of control
same,T/C,[17],227 % of control
same,T/C,"dose: 150.0 mg/kg/injection, schedule: Q04DX003 (ip), vehicle: saline with Tween-80",118 % of control
CNC(=S)/C(C(C)=O)=C(\C)Nc1ccccc1,T/C,[18],101 % of control
same,T/C,[19],106 % of control
same,T/C,[20],106 % of control
FC(F)(F)C(F)(F)c1nc2nc(Cl)c(Cl)nc2[nH]1,T/C,"dose: 50.0 mg/kg/injection, schedule: Q04DX003 (ip), vehicle: other",100 % of control
same,T/C,"dose: 100.0 mg/kg/injection, schedule: Q04DX003 (ip), vehicle: other",118 % of control
same,T/C,"dose: 200.0 mg/kg/injection, schedule: Q04DX003 (ip), vehicle: other",113 % of control
COc1cc2cc3c4ccc(OC)c(OC)c4cc[n+]3c(C)c2cc1OC (tested in a mixture with another compound),T/C,"dose: 12.5 mg/kg/injection, schedule: Q01DX009 (ip), vehicle: saline with Tween-80",150 % of control
same,T/C,"dose: 25.0 mg/kg/injection, schedule: Q01DX009 (ip), vehicle: saline with Tween-80",164 % of control
same,T/C,[21],174 % of control
same,T/C,[16],209 % of control
O=C1CC2COc3ccc(O)cc3C2=NN1c1ccccc1 (configuration not stated),T/C,[4],94 % of control
same,T/C,[5],98 % of control
same,T/C,[6],94 % of control
CCOC(=O)c1cnc(SC)n(-c2c(Cl)cccc2Cl)c1=O,T/C,[8],98 % of control
same,T/C,[9],97 % of control
same,T/C,[10],99 % of control
O=C1NNC(c2ccccc2)=Nc2ccccc21,T/C,"dose: 100.0 mg/kg/injection, schedule: Q04DX002 (ip), vehicle: saline with Tween-80",96 % of control
same,T/C,"dose: 200.0 mg/kg/injection, schedule: Q04DX002 (ip), vehicle: saline with Tween-80",96 % of control
same,T/C,"dose: 400.0 mg/kg/injection, schedule: Q04DX002 (ip), vehicle: saline with Tween-80",94 % of control
COc1ccc2nc3cc(Cl)ccc3c(NN3CCN(CCO)CC3)c2c1,T/C,"dose: 0.19 mg/kg/injection, schedule: Q01DX009 (ip), vehicle: DMSO",86 % of control
same,T/C,"dose: 0.38 mg/kg/injection, schedule: Q01DX009 (ip), vehicle: DMSO",98 % of control and 89 % of control
same,T/C,"dose: 0.75 mg/kg/injection, schedule: Q01DX009 (ip), vehicle: DMSO",98 % of control
same,T/C,"dose: 1.5 mg/kg/injection, schedule: Q01DX009 (ip), vehicle: DMSO",107 % of control and 95 % of control
same,T/C,"dose: 23.0 micrograms/kg/injection, schedule: Q01DX009 (ip), vehicle: DMSO",87 % of control
same,T/C,"dose: 47.0 micrograms/kg/injection, schedule: Q01DX009 (ip), vehicle: DMSO",91 % of control
same,T/C,"dose: 94.0 micrograms/kg/injection, schedule: Q01DX009 (ip), vehicle: DMSO",89 % of control
Cc1ccc(S(=O)(=O)N2CCC2)cc1,T/C,[16],90 % of control
same,T/C,"dose: 200.0 mg/kg/injection, schedule: Q01DX009 (ip), vehicle: saline with Tween-80",95 % of control
same,T/C,"dose: 400.0 mg/kg/injection, schedule: Q01DX009 (ip), vehicle: saline with Tween-80",100 % of control
Clc1ccc(N=Cc2ccc(C=Nc3ccc(Cl)cc3Cl)cc2)c(Cl)c1,T/C,"dose: 12.5 mg/kg/injection, schedule: Q01DX009 (ip), vehicle: saline",94 % of control
same,T/C,[11],94 % of control
same,T/C,[12],100 % of control and 105 % of control
same,T/C,[13],88 % of control
same,T/C,[14],92 % of control
O=C(CCCl)Nc1ccccc1C(=O)CCc1cn(C(=O)CCCl)c2ccccc12,T/C,[1],107 % of control
same,T/C,[2],102 % of control
same,T/C,[3],96 % of control
O=[N+]([O-])c1ccc(N/N=C(\CO)c2ccccc2)c([N+](=O)[O-])c1,T/C,[15],100 % of control
same,T/C,[17],104 % of control
same,T/C,"dose: 200.0 mg/kg/injection, schedule: Q04DX003 (ip), vehicle: saline with Tween-80",100 % of control
N=C(N)SCc1c2ccccc2cc2ccccc12,T/C,"dose: 22.0 mg/kg/injection, schedule: Q01DX009 (ip), vehicle: saline with Tween-80",109 % of control
same,T/C,"dose: 33.0 mg/kg/injection, schedule: Q01DX009 (ip), vehicle: saline with Tween-80",109 % of control
same,T/C,[21],109 % of control
same,T/C,"dose: 75.0 mg/kg/injection, schedule: Q01DX009 (ip), vehicle: saline with Tween-80",118 % of control
same,T/C,[17],118 % of control
c1ccc2c(c1)Nc1ccccc1O2,T/C,[7],98 % of control
same,T/C,[8],91 % of control
same,T/C,[9],100 % of control
same,T/C,[10],99 % of control
N#CC(O)Cc1ccccc1 (configuration not stated),T/C,"dose: 2.5 mg/kg/injection, schedule: Q04DX003 (ip), vehicle: other",110 % of control
same,T/C,"dose: 5.0 mg/kg/injection, schedule: Q04DX003 (ip), vehicle: other",105 % of control
same,T/C,"dose: 10.0 mg/kg/injection, schedule: Q04DX003 (ip), vehicle: other",105 % of control
C#CC(=O)CCC,T/C,"dose: 3.75 mg/kg/injection, schedule: Q01DX005 (ip), vehicle: saline with Tween-80",113 % of control
same,T/C,"dose: 7.5 mg/kg/injection, schedule: Q01DX005 (ip), vehicle: saline with Tween-80",106 % of control
same,T/C,"dose: 15.0 mg/kg/injection, schedule: Q01DX005 (ip), vehicle: saline with Tween-80",105 % of control
C=CCNC(=S)Nc1sc2c(c1C(=O)OCC)CCCC2,T/C,[18],93 % of control
same,T/C,[19],94 % of control
same,T/C,[20],89 % of control
